Laboratory results from ChEMBL document CHEMBL1201862, “PubChem BioAssay data set” (2004).
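Compound exposure: 48 hours, 5 concentrations, 96-well plates. GI50 is the concentration that inhibits growth by half.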 Active and inactive are the calls of the source. Cut-off read from the data, not from the text of the source: active = GI50 up to about 1.1 µM and inactive = higher.

How the values were obtained:
Experiment in all cases: growth of human tumour cells (NCI), 48 h
[1] = system: SR
[2] = system: OVCAR-8
[3] = system: Malme-3M
[4] = system: EKVX
[5] = system: OVCAR-5
[6] = system: HCT-116
[7] = system: NCI-H460
[8] = system: MDA-MB-231
[9] = system: CCRF-CEM
[10] = system: SN12C
[11] = system: NCI-H522
[12] = system: K562
[13] = system: OVCAR-3
[14] = system: DU-145
[15] = system: IGROV-1
[16] = system: MOLT-4
[17] = system: A498
[18] = system: UO-31
[19] = system: Hs-578T
[20] = system: NCI/ADR-RES

Row | Structure (SMILES) | GI50 [1] | GI50 [2] | GI50 [3] | GI50 [4] | GI50 [5] | GI50 [6] | GI50 [7] | GI50 [8] | GI50 [9] | GI50 [10] | GI50 [11] | GI50 [12] | GI50 [13] | GI50 [14] | GI50 [15] | GI50 [16] | GI50 [17] | GI50 [18] | GI50 [19] | GI50 [20]
1 | COC(=O)c1cc(NC(=O)Cn2c3ccccc3c3ccccc32)cn1C | 49.5 µM (inactive) | 30.1 µM (inactive) | 30.2 µM (inactive) | 34 µM (inactive) | > 100 µM (inactive) | 46.2 µM (inactive) | 57.5 µM (inactive) | 20.1 µM (inactive) | 39.3 µM (inactive) | 55.3 µM (inactive) | 28.3 µM (inactive) | 59.2 µM (inactive) | > 100 µM (inactive) | > 100 µM (inactive) | 24.3 µM (inactive) | 61 µM (inactive) | > 100 µM (inactive) | 25 µM (inactive) | 14.2 µM (inactive) | 30.3 µM (inactive)
2 | Cc1[nH]n(-c2ccccc2)c(=O)c1C(N(CCc1ccccc1)C1=NCC(C)S1)(C(F)(F)F)C(F)(F)F (stereo not drawn) | 22.3 µM (inactive) | – | 11.1 µM (inactive) | 11.3 µM (inactive) | 8.65 µM (inactive) | 10.1 µM (inactive) | 13.9 µM (inactive) | 18.8 µM (inactive) | 19.3 µM (inactive) | 17.8 µM (inactive) | 4.35 µM (inactive) | 15.2 µM (inactive) | 8.77 µM (inactive) | 27.2 µM (inactive) | – | 20.5 µM (inactive) | 11.9 µM (inactive) | 10.4 µM (inactive) | 20.5 µM (inactive) | 18.9 µM (inactive)
3 | Cc1cc(CN2CCCCC2)c(O)c(CN2CCCCC2)c1 | > 100 µM (inactive) | > 100 µM (inactive) | > 100 µM (inactive) | > 100 µM (inactive) | > 100 µM (inactive) | > 100 µM (inactive) | > 100 µM (inactive) | > 100 µM (inactive) | 41.3 µM (inactive) | > 100 µM (inactive) | > 100 µM (inactive) | > 100 µM (inactive) | > 100 µM (inactive) | > 100 µM (inactive) | > 100 µM (inactive) | – | > 100 µM (inactive) | > 100 µM (inactive) | > 100 µM (inactive) | > 100 µM (inactive)
4 | CS(=O)(=O)Nc1ccc2ccccc2c1 | > 100 µM (inactive) | > 100 µM (inactive) | > 100 µM (inactive) | 57.3 µM (inactive) | > 100 µM (inactive) | > 100 µM (inactive) | > 100 µM (inactive) | > 100 µM (inactive) | > 100 µM (inactive) | > 100 µM (inactive) | > 100 µM (inactive) | > 100 µM (inactive) | > 100 µM (inactive) | > 100 µM (inactive) | > 100 µM (inactive) | > 100 µM (inactive) | > 100 µM (inactive) | 21.1 µM (inactive) | > 100 µM (inactive) | > 100 µM (inactive)
5 | CCN(CC)CC(=O)O[C@]1(CC)C(=O)OCc2c1cc1n(c2=O)Cc2cc3ccccc3nc2-1 | < 0.01 µM (active) | 0.0285 µM (active) | 0.219 µM (active) | 0.256 µM (active) | 0.0885 µM (active) | 0.0307 µM (active) | < 0.01 µM (active) | 3.37 µM (inactive) | < 0.01 µM (active) | 0.0204 µM (active) | 0.0247 µM (active) | 0.0451 µM (active) | 0.219 µM (active) | < 0.01 µM (active) | 0.11 µM (active) | < 0.01 µM (active) | 0.0583 µM (active) | 0.0196 µM (active) | 3.21 µM (inactive) | < 0.01 µM (active)
6 | S=C(NC/C(Br)=C/Br)Nc1cccc2ccccc12 | 15.4 µM (inactive) | 27.6 µM (inactive) | 28.9 µM (inactive) | 28.9 µM (inactive) | 33.6 µM (inactive) | 24.2 µM (inactive) | – | 19.4 µM (inactive) | 18.3 µM (inactive) | 24.4 µM (inactive) | 20 µM (inactive) | 11.7 µM (inactive) | 24 µM (inactive) | 30.9 µM (inactive) | 29.3 µM (inactive) | 17.8 µM (inactive) | 33.5 µM (inactive) | 20.9 µM (inactive) | > 100 µM (inactive) | 19 µM (inactive)
7 | COC(=O)C1(Cc2ccc3c(c2)CCC3)Cc2ccc3c(c2C1O)CCC3 (stereo not drawn) | 12 µM (inactive) | 17.3 µM (inactive) | 12.2 µM (inactive) | 8.89 µM (inactive) | – | 11.8 µM (inactive) | 21 µM (inactive) | 12.7 µM (inactive) | > 100 µM (inactive) | 15 µM (inactive) | 10.9 µM (inactive) | > 100 µM (inactive) | 13.8 µM (inactive) | 11.8 µM (inactive) | > 10 µM (inactive) | > 100 µM (inactive) | 11.7 µM (inactive) | 10.7 µM (inactive) | 17.3 µM (inactive) | 12.6 µM (inactive)
8 | N#Cc1cc([N+](=O)[O-])ccc1NC(=O)/C(=N\NC(=O)c1ccncc1)C(c1cnc2ccc([N+](=O)[O-])cc2n1)[N+](=O)[O-] (stereo not drawn) | 4.24 µM (inactive) | 3.1 µM (inactive) | 1.31 µM (inactive) | 9.31 µM (inactive) | 9.4 µM (inactive) | 2.43 µM (inactive) | 2.13 µM (inactive) | 1.99 µM (inactive) | 3.38 µM (inactive) | 1.85 µM (inactive) | 1.8 µM (inactive) | 2.02 µM (inactive) | 1.64 µM (inactive) | 5.64 µM (inactive) | 3.78 µM (inactive) | 7.23 µM (inactive) | 8.49 µM (inactive) | 2.31 µM (inactive) | 2.26 µM (inactive) | 6.41 µM (inactive)
9 | CC1=NN(c2ccc(S(=O)(=O)O)cc2)C2(C1)C(Cl)C(=O)N2c1nc2ccccc2s1 (stereo not drawn) | > 100 µM (inactive) | > 100 µM (inactive) | > 100 µM (inactive) | 55.7 µM (inactive) | > 100 µM (inactive) | > 100 µM (inactive) | > 100 µM (inactive) | > 100 µM (inactive) | > 100 µM (inactive) | > 100 µM (inactive) | > 100 µM (inactive) | > 100 µM (inactive) | 68.4 µM (inactive) | > 100 µM (inactive) | > 100 µM (inactive) | > 100 µM (inactive) | > 100 µM (inactive) | > 100 µM (inactive) | > 100 µM (inactive) | > 100 µM (inactive)
10 | C=C1C(=O)OC2C1CC(O)/C(C)=C\CCC1(C)OC21 (stereo not drawn) | 20.2 µM (inactive) | 33.8 µM (inactive) | 19.2 µM (inactive) | 36.7 µM (inactive) | 23.8 µM (inactive) | 29.8 µM (inactive) | 31.8 µM (inactive) | 15.5 µM (inactive) | 25.4 µM (inactive) | – | 14.8 µM (inactive) | – | 17.4 µM (inactive) | 32.8 µM (inactive) | 32.5 µM (inactive) | 7.35 µM (inactive) | 43 µM (inactive) | 22.9 µM (inactive) | 23.5 µM (inactive) | 22.7 µM (inactive)
